Earlier results on 16 molecules are cited in patent US20070259053A1, “Inhibition of nephrotoxicity induced by Trasylol® and like agents” (priority 2006, published 2007).

The test system of data set [1] is gentamicin induced renal toxic effects.
Data set [2] relates to mercury induced acute renal failure. The following applies: in vivo.
The test system of data set [3] is renal accumulation of lysozyme. The settings on record: microinfusion experiments.
Data set [4] deals with renal accumulation of gentamicin.
Another data set has as its system BBM. The following applies: for effect on binding of albumins of increased isoelectric points to BBM: b13: pH 6.5, pI 8.5 albumins.
In data set [5] the test system is isolated renal brush border membranes. The settings on record: for effect on binding of gentamicin to isolated renal brush border membranes: isolated BBM.
In data set [6] the test system is toxic effects of spermine and gentamicin.
The subject of data set [7] is renal toxic effects of cisplatin. The following applies: bird.
For data set [8] the test system is unchanged. The settings on record: rat.
A further data set relates to kidney. The settings on record: noted by autoradiography.

Like-named read-outs stand apart in the source and are kept apart here.

Take `Clc1cccc(Cl)c1N=C1NCCN1` [Clonidine]: the “effect on gentamicin induced renal toxic effects” value in [1] (rat kidney) is listed as “inhibited”. In addition, the “effect on mercury induced acute renal failure” value in data set [2] is reported as “protected”.
In the case of `N=C(N)NCCC[C@H](N)C(=O)O` [L-arginine], the “effect on renal accumulation of lysozyme” value in data set [3] is recorded as “inhibited”.
For the molecule `C[n+]1cccc(C(N)=O)c1` [N′-methylnicotinamide], in data set [4] (rats), the “effect on renal accumulation of gentamicin” value was “inhibited” and the “effect on urinary excretion of gentamicin” value was “increased”.
Take `[Cd]` [cadmium]: the “effect on gentamicin accumulation in the renal cortex” value in data set [4] (cadmium treated animals) is “reduced”.
With `[Ca+2]` [calcium], in the data set with BBM, the “effect on binding of lysozyme to BBM” value is listed as “decreased” and the “effect on binding of albumins of increased isoelectric points to BBM” value is reported as “decreased”. Also, in the data set on BBM (listed as Ca^++), the “effect on binding of albumins of increased isoelectric points to BBM” value is recorded as “inhibited” and the “effect on binding of lysozyme to BBM” value was “inhibited”. Moreover, in data set [5], the “effect on binding of gentamicin to isolated renal brush border membranes” value (“effect on binding of gentamicin” for short) is recorded as “competitive inhibitor”.
On to `N.N.[Cl][Pt][Cl]` [cisplatin], for which, in the data set with vesicles of BBM, the “effect on transport of N′-methylnicotinamide into vesicles of BBM” value is given as “inhibited” and the “effect on transport of tetraethylamonium (TEA) into vesicles of BBM” value was “inhibited”. Besides, in the data set with mouse kidney, the “effect on uptake of TEA” value is “inhibited” and the “effect on uptake of p-aminohipputate” value is on record as “inhibited”.
On to `NCCCC[C@H](N)C(=O)O` [lysine], for which, in [3], the “effect on renal accumulation of lysozyme” value is recorded as “inhibited”. Also, the “effect with the renal toxic effects of gentamicin” value in data set [1] (given with gentamicin) is “additive effect”.
`Cc1ncc(COP(=O)(O)O)c(C=O)c1O` [pyridoxal 5′-phsophate, pyridoxal 5′-phosphate]: in data set [6] (in vivo), the “effect on toxic effects of gentamicin” value is “inhibited”. The “effect on toxic effects of spermine” value in data set [6] (positively charged renal toxin spermine) is given as “inhibited”.
For `C=C[C@H]1C[N@@]2CC[C@H]1C[C@H]2[C@H](O)c1ccnc2ccc(OC)cc12` [quinine], the “effect on renal toxic effects of cisplatin” value in [7] and in data set [8] was “provided protection” in each case.
For the molecule `NCCCNCCCCNCCCN` [spermine], the “effect on renal accumulation of lysozyme” value in [3] is reported as “inhibited”. Further, the “effect on uptake of gentamicin by renal tubular BBM” value in data set [5] (renal tubular BBM) is “inhibited”.
In the case of Myoglobin, the “effect on renal accumulation of lysozyme” value in [3] is reported as “without effect”.
aprotinin: in data set [4] (in vivo), the “effect on renal absorption of gentamicin” value is recorded as “did not unambiguously inhibit”. Besides, the “time after administration at which level peaked in the kidney” value with kidney was 72 h. In addition, the “effect on binding of gentamicin” value in data set [5] was “inhibited”.
Take cytochrome C: in data set [3], the “effect on renal accumulation of lysozyme” value is “inhibited”.
Turning to polylycine, the “effect on acute toxic effects of whole animal nephrotoxicity (gentamicin)” value in [1] (whole animal) is “lessened”. The “effect on binding of gentamicin” value in [5] is given as “inhibited”.
Regarding ribonuclease, in data set [3], the “effect on renal accumulation of lysozyme” value is “inhibited”.
For tetralysine, the “effect on uptake of gentamicin in rat renal cortex” value in [4] (rat renal cortex) is on record as “inhibited”.
